From PubChem BioAssay (NCI)
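At the GI50, growth is halved. The concentration for full growth arrest is given as TGI.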

What was measured:
Test in all cases: DTP human tumour cell line panel, 384-well format
NCI-H460 NSCLC = system: NCI-H460 NSCLC
SNB-19 CNS = system: SNB-19 CNS
SNB-75 CNS = system: SNB-75 CNS
MALME-3M melanoma = system: MALME-3M melanoma
A549 NSCLC = system: A549 NSCLC
ACHN renal = system: ACHN renal
PC-3 prostate = system: PC-3 prostate
HT29 colon = system: HT29 colon
SF-539 CNS = system: SF-539 CNS
SK-MEL-28 melanoma = system: SK-MEL-28 melanoma
IGROV1 ovarian = system: IGROV1 ovarian
OVCAR-4 ovarian = system: OVCAR-4 ovarian
HCT-116 colon = system: HCT-116 colon
NCI-H522 lung = system: NCI-H522 lung
HS 578T breast = system: HS 578T breast
MOLT-4 leukemia = system: MOLT-4 leukemia
U251 glioblastoma = system: U251 glioblastoma
SK-OV-3 ovarian = system: SK-OV-3 ovarian
OVCAR-5 ovarian = system: OVCAR-5 ovarian
KM12 colon = system: KM12 colon
HOP-92 NSCLC = system: HOP-92 NSCLC
NCI-H23 lung = system: NCI-H23 lung
786-0 renal = system: 786-0 renal
SN12C renal = system: SN12C renal
TK-10 renal = system: TK-10 renal
DU-145 prostate = system: DU-145 prostate
SK-MEL-2 melanoma = system: SK-MEL-2 melanoma
UO-31 renal = system: UO-31 renal
BT-549 breast = system: BT-549 breast
MDA-MB-468 breast = system: MDA-MB-468 breast
MDA-MB-435 melanoma = system: MDA-MB-435 melanoma
SR leukemia = system: SR leukemia
HL-60(TB) leukemia = system: HL-60(TB) leukemia
CAKI-1 renal = system: CAKI-1 renal
UACC-62 melanoma = system: UACC-62 melanoma
M14 melanoma = system: M14 melanoma
NCI-H322M lung = system: NCI-H322M lung
MDA-MB-231 breast = system: MDA-MB-231 breast
OVCAR-3 ovarian = system: OVCAR-3 ovarian
SW-620 colon = system: SW-620 colon
A498 renal = system: A498 renal
SF-268 CNS = system: SF-268 CNS
K-562 leukemia = system: K-562 leukemia

Molecule C=CC(=O)Nc1cc2c(Nc3ccc(OCc4ccccn4)c(Cl)c3)ncnc2cc1OCCN1CCOCC1 has a GI50 (NCI-H460 NSCLC) of 1.53 µM, a TGI (NCI-H460 NSCLC) of 3.16 µM and a GI50 (SNB-19 CNS) of 5.38 µM. The TGI (SNB-19 CNS) was 18.3 µM, the GI50 (SNB-75 CNS) was 1.39 µM and the TGI (SNB-75 CNS) was 2.92 µM. For the same molecule, the GI50 (MALME-3M melanoma) was 1.7 µM, the TGI (MALME-3M melanoma) was 3.09 µM and the GI50 (A549 NSCLC) was 3.11 µM. The GI50 (ACHN renal) was 0.098 µM, the TGI (ACHN renal) was 1.69 µM and the GI50 (PC-3 prostate) was 1.65 µM. The TGI (PC-3 prostate) was 3.11 µM, the GI50 (HT29 colon) was 1.59 µM and the TGI (HT29 colon) was 2.99 µM. It also gave a GI50 (SF-539 CNS) of 1.25 µM, a TGI (SF-539 CNS) of 2.51 µM and a GI50 (SK-MEL-28 melanoma) of 1.55 µM. For the same molecule, the TGI (SK-MEL-28 melanoma) was 2.91 µM, the GI50 (IGROV1 ovarian) was 0.027 µM and the TGI (IGROV1 ovarian) was 1.08 µM. The GI50 (OVCAR-4 ovarian) was 1.13 µM, the TGI (OVCAR-4 ovarian) was 2.5 µM and the GI50 (HCT-116 colon) was 1.48 µM. It also gave a TGI (HCT-116 colon) of 2.92 µM, a GI50 (NCI-H522 lung) of 0.131 µM and a TGI (NCI-H522 lung) of 1.43 µM. It also gave a GI50 (HS 578T breast) of 0.364 µM, a TGI (HS 578T breast) of 2.08 µM and a GI50 (MOLT-4 leukemia) of 1.58 µM. For the same molecule, the TGI (MOLT-4 leukemia) was 2.96 µM, the GI50 (U251 glioblastoma) was 1.52 µM and the TGI (U251 glioblastoma) was 2.93 µM. For the same molecule, the GI50 (SK-OV-3 ovarian) was 0.0537 µM, the TGI (SK-OV-3 ovarian) was 2.35 µM and the GI50 (OVCAR-5 ovarian) was 3.49 µM. The TGI (OVCAR-5 ovarian) was greater than 100 µM, the GI50 (KM12 colon) was 1.75 µM and the TGI (KM12 colon) was 3.23 µM. The GI50 (HOP-92 NSCLC) was 1.37 µM, the TGI (HOP-92 NSCLC) was 2.78 µM and the GI50 (NCI-H23 lung) was 1.69 µM. The TGI (NCI-H23 lung) was 4.25 µM, the GI50 ([…]-0 renal) was 1.35 µM and the TGI (786-0 renal) was 2.67 µM. It also gave a GI50 (SN12C renal) of 1.1 µM, a TGI (SN12C renal) of 2.73 µM and a GI50 (TK-10 renal) of 0.0305 µM. For the same molecule, the TGI (TK-10 renal) was 1.54 µM, the GI50 (DU-145 prostate) was 0.499 µM and the TGI (DU-145 prostate) was 2.12 µM. It also gave a GI50 (SK-MEL-2 melanoma) of 1.3 µM, a TGI (SK-MEL-2 melanoma) of 2.58 µM and a GI50 (UO-31 renal) of 1.08 µM. For the same molecule, the TGI (UO-31 renal) was 2.33 µM, the GI50 (BT-549 breast) was 1.16 µM and the TGI (BT-549 breast) was 2.38 µM. The TGI (MDA-MB-468 breast) was 0.0405 µM, the GI50 (MDA-MB-435 melanoma) was 1.54 µM and the TGI (MDA-MB-435 melanoma) was 2.96 µM. The GI50 (SR leukemia) was 1.52 µM, the TGI (SR leukemia) was 2.89 µM and the GI50 (HL-60(TB) leukemia) was 1.53 µM. The TGI (HL-60(TB) leukemia) was 2.9 µM, the GI50 (CAKI-1 renal) was 1.18 µM and the TGI (CAKI-1 renal) was 2.42 µM. The GI50 (UACC-62 melanoma) was 1.38 µM, the TGI (UACC-62 melanoma) was 2.68 µM and the GI50 (M14 melanoma) was 1.65 µM. The TGI (M14 melanoma) was 3.02 µM, the GI50 (NCI-H322M lung) was 0.0183 µM and the TGI (NCI-H322M lung) was 1.14 µM. For the same molecule, the GI50 (MDA-MB-231 breast) was 1.28 µM, the TGI (MDA-MB-231 breast) was 2.91 µM and the GI50 (OVCAR-3 ovarian) was 0.282 µM. It also gave a TGI (OVCAR-3 ovarian) of 1.88 µM, a GI50 (SW-620 colon) of 1.73 µM and a TGI (SW-620 colon) of 3.16 µM. The GI50 (A498 renal) was 0.744 µM, the TGI (A498 renal) was 2.2 µM and the GI50 (SF-268 CNS) was 1.42 µM. It also gave a TGI (SF-268 CNS) of 2.81 µM, a GI50 (K-562 leukemia) of 1.49 µM and a TGI (K-562 leukemia) of 2.95 µM.
